The values that follow come from US8114880B2, “Piperidine or piperazine substituted tetrahydro-naphthalene-1-carboxylic acid MTP inhibiting compounds” (Janssen Pharmaceutica N.V., priority 2006, dated 2012).

Bounds are passed on as bounds.

For one test, the system named is HepG2 cells. As to the kind of experiment: Quantification of the secretion of ApoB. Format: cell-based. To be noted: 24 hours of incubation; for IC50: Homo sapiens, HepG2, 24 h, pIC50 = -log IC50. As for the experimental part:
HepG2 cells were cultured in 24-well plates in MEM Rega 3 containing 10% fetal calf serum. At 70% confluency, the medium was changed and the test compound or carrier (DMSO, 0.4% final concentration) was added. After 24 hours of incubation, the medium was transferred to Eppendorf tubes and cleared by centrifugation. A sheep antibody directed against either apoB was added to the supernatant and the mixture was kept at 8° C. for 24 hours. Then, rabbit anti-sheep antibody was added and the immune complex was allowed to precipitate for 24 hours at 8° C. The immunoprecipitate was pelleted by centrifugation for 25 minutes at 1320 g and washed twice with a buffer containing 40 mM Mops, 40 mM NaH2PO4, 100 mM NaF, 0.2 mM DTT, 5 mM EDTA, 5 mM EGTA, 1% Triton-X-100, 0.5% sodium deoxycholate (DOC), 0.1% SDS, 0.2 μM leupeptin and 0.2 μM PMSF. Radioactivity in the pellet was quantified by liquid scintillation counting. The IC50 values are usually converted to pIC50 values (=−log IC50 value) for ease of use.

The next test deals with MTP (Homo sapiens, UniProt P55157). As to the kind of experiment: MTP assay (triglyceride transfer from donor to acceptor vesicles). Format: biochemical. Particulars: MTP activity, percent triglyceride transfer from donor to acceptor vesicles, 37° C. An outline of the steps: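 Radiolabelled triglyceride transfer from donor vesicles (phosphatidylcholine, 7.5 mol % cardiolipin, 0.25 mol % glycerol tri[1-^14C]-oleate) to phosphatidylcholine acceptor vesicles with BSA, pH 7.5 Tris buffer; compounds in DMSO (0.13% final), 5 min preincubation at 37° C before MTP addition. Donor vesicles removed on DEAE-52; acceptor-supernatant ^14C counts give percent transfer.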
Sequence of MTP (P55157 19-894, species assumed): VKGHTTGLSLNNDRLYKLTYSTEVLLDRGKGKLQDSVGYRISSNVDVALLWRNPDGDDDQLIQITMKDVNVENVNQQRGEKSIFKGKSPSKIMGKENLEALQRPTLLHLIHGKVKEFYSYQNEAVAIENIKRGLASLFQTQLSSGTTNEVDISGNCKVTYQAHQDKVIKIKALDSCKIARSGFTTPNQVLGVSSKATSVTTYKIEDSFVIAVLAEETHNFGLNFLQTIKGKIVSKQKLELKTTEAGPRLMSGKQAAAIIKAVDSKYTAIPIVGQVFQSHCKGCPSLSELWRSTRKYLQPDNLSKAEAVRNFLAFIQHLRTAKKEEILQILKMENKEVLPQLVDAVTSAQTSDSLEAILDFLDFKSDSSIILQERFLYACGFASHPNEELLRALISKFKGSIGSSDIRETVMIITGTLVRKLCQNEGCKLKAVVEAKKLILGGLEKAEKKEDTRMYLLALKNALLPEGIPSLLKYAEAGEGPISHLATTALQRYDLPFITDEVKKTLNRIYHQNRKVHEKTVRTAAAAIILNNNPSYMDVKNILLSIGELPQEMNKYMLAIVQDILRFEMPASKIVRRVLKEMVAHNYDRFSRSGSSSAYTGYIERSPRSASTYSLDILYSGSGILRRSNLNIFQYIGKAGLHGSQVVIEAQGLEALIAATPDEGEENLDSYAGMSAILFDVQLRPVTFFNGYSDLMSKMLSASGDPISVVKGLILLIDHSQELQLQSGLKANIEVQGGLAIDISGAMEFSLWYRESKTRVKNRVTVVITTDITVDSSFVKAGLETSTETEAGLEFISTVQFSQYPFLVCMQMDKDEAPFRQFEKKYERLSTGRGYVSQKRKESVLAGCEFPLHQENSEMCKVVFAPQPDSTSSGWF
Sequence of MTP (P07237 18-508 partner, species assumed): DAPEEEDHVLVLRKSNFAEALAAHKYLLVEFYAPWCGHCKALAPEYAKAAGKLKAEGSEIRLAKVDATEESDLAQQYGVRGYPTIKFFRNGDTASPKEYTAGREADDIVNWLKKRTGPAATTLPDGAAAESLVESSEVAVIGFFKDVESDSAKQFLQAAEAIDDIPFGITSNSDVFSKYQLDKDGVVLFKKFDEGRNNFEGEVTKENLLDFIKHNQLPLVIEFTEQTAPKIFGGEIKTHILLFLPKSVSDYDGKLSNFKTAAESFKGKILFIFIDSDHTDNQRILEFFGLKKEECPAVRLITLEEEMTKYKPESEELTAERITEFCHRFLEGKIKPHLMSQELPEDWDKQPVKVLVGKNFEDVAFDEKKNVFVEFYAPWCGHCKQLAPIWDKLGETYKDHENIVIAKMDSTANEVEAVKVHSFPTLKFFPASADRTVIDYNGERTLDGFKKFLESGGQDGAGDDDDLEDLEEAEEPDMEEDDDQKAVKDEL

For the molecule `CCNC(=O)[C@]1(c2ccccc2)CC[C@@H](C(=O)N2CCC(NC(=O)c3ccccc3OC)CC2)c2ccccc21` (racemic) [Co. No. 7], the IC50 in the test on HepG2 cells is 2.28 nM; at MTP, 6.47 nM.
The corresponding values for `CCOC(=O)[C@]1(c2ccccc2)CC[C@@H](C(=O)N2CCC(NC(=O)c3ccccc3OC)CC2)c2ccccc21` (racemic) [Co. No. 26] are 6.37 nM and 1.92 nM.
`CCOC(=O)[C@@]1(c2ccccc2)CC[C@H](C(=O)N2CCC(NC(=O)c3ccccc3)CC2)c2ccccc21` (single isomer, unassigned) [Co. No. 32]: the concentration for half-maximal inhibition (IC50) with HepG2 cells is 7.52 nM; at MTP it was 1.9 nM.
In the same order, the values of `CCNC(=O)[C@@]1(c2ccccc2)CC[C@H](C(=O)N2CCC(NC(=O)c3ccccc3OC)CC2)c2ccccc21` (single isomer, unassigned) [Co. No. 39] are 3.13 nM and 3 nM.
`COc1ccccc1C(=O)NC1CCN(C(=O)[C@@H]2CC[C@@](C(N)=O)(c3ccccc3)c3ccccc32)CC1` (single isomer, unassigned) [Co. No. 41]: the IC50 with HepG2 cells is 35.8 nM; against MTP it was over 10000 nM.
For the molecule `COc1ccccc1C(=O)NC1CCN(C(=O)[C@@H]2CC[C@](C(N)=O)(c3ccccc3)c3ccccc32)CC1` (single isomer, unassigned) [Co. No. 43], the values for the IC50 in the test on HepG2 cells and on MTP were 267 nM and 90.4 nM, respectively.
For `COc1ccccc1C(=O)NC1CCN(C(=O)[C@H]2CC[C@@](C(N)=O)(c3ccccc3)c3ccccc32)CC1` (single isomer, unassigned) [Co. No. 44], the results for the IC50 in the test with HepG2 cells and against MTP were 106 nM and over 1000 nM, respectively.
As to `O=C(NC1CCN(C(=O)C2CCC(C(=O)NCc3ccccc3)(c3ccccc3)c3ccccc32)CC1)c1ccccc1` (stereo not shown) [Co. No. 3], the 50% inhibitory concentration (IC50) in the test on HepG2 cells was 80.5 nM; against MTP it was 17.7 nM.
Take `CCCNC(=O)C1(c2ccccc2)CCC(C(=O)N2CCC(NC(=O)c3ccccc3)CC2)c2ccccc21` (stereo not shown) [Co. No. 4]: the IC50 is 228 nM in the test with HepG2 cells and 42.4 nM against MTP.
As to `CCCNC(=O)C1(c2ccccc2)CCC(CN2CCC(NC(=O)c3ccccc3-c3ccc(C(F)(F)F)cc3)CC2)c2ccccc21` (stereo not shown) [Co. No. 6], the figures for the IC50 in the test on HepG2 cells and at MTP were 20.4 nM and 16 nM, respectively.
The molecule `C=CCOC(=O)[C@]1(c2ccccc2)CC[C@@H](C(=O)N2CCC(NC(=O)c3ccccc3OC)CC2)c2ccccc21` [Co. No. 8] registered a pIC50 with HepG2 cells (pIC50 = -log IC50, listed as 8) of 8.188. This molecule also had an IC50 against MTP of 2.82 nM.
In the case of `CCNC(=O)[C@]1(c2ccccc2)CC[C@@H](C(=O)N2CCC(NC(=O)c3ccccc3-c3ccc(C(F)(F)F)cc3)CC2)c2ccccc21` [Co. No. 10], the IC50 in the test with HepG2 cells was 1.85 nM; at MTP it was 1.96 nM.
For the molecule `CCNC(=O)[C@]1(c2ccccc2)CC[C@H](C(=O)N2CCC(NC(=O)c3ccccc3-c3ccc(C(F)(F)F)cc3)CC2)c2ccccc21` [Co. No. 11], the figures for the 50% inhibitory concentration (IC50) in the test on HepG2 cells and at MTP were over 100 nM and 217 nM, respectively.
With `CCNC(=O)[C@]1(c2ccccc2)CC[C@@H](CN2CCC(NC(=O)c3ccccc3OC)CC2)c2ccccc21` [Co. No. 15], the IC50 was 186 nM with HepG2 cells and 50.2 nM at MTP.
The corresponding values for `CCNC(=O)[C@]1(c2ccccc2)CC[C@@H](CN2CCC(NC(=O)c3ccccc3-c3ccc(C(F)(F)F)cc3)CC2)c2ccccc21` [Co. No. 16] are 15 nM and 3.2 nM.
In the same order, the values of `C=CCOC(=O)[C@]1(c2ccccc2)CC[C@@H](C(=O)N2CCC(NC(=O)c3ccccc3-c3ccc(C(F)(F)F)cc3)CC2)c2ccccc21` [Co. No. 19] are 7.57 nM and 4.63 nM.
As to `CCNC(=O)[C@]1(c2ccccc2)CC[C@@H](C(=O)N2CC[C@@H](NC(=O)c3ccccc3OC)[C@@H](OC)C2)c2ccccc21` [Co. No. 20], the IC50 with HepG2 cells is 22.9 nM; on MTP, 12.6 nM.
Take `CCNC(=O)[C@]1(c2ccccc2)CC[C@@H](C(=O)N2CCC(NC(=O)c3ccc(Cl)cc3OC)CC2)c2ccccc21` [Co. No. 21]: the values for the IC50 in the test on HepG2 cells and against MTP were 27.6 nM and 9.84 nM, respectively.
Turning to `CCNC(=O)[C@]1(c2ccccc2)CC[C@@H](C(=O)N2CCC(NC(=O)c3ccccc3C)CC2)c2ccccc21` [Co. No. 22], the IC50 in the test with HepG2 cells was 155 nM; on MTP, 28.9 nM.
Regarding `CCNC(=O)[C@]1(c2ccccc2)CC[C@@H](C(=O)N2CC[C@@H](NC(=O)c3cc(Cl)c(N)cc3OC)[C@@H](OC)C2)c2ccccc21` [Co. No. 23], the IC50 is 232 nM in the test on HepG2 cells and 60.3 nM at MTP.
As to `CCOC(=O)[C@]1(c2ccccc2)CC[C@@H](C(=O)N2CCC(NC(=O)c3cc(Cl)c(N)cc3OC)CC2)c2ccccc21` [Co. No. 24], the IC50 is 202 nM in the test with HepG2 cells and 54.8 nM on MTP.
For the molecule `CCOC(=O)[C@]1(c2ccccc2)CC[C@@H](C(=O)N2CCN(C(=O)c3ccccc3OC)CC2)c2ccccc21` [Co. No. 27], the values for the IC50 in the test with HepG2 cells and against MTP were 778 nM and 65.2 nM, respectively.
In the case of `CCOC(=O)[C@]1(c2ccccc2)CC[C@@H](C(=O)N2CCN(C(=O)c3ccc(C)cc3-c3ccc(C(F)(F)F)cc3)CC2)c2ccccc21` [Co. No. 28], the IC50 in the test on HepG2 cells was 329 nM; at MTP, over 100 nM.
For the molecule `CCOC(=O)[C@]1(c2ccccc2)CC[C@@H](C(=O)N2CCC(NC(=O)c3ccccc3)CC2)c2ccccc21` [Co. No. 33], the IC50 in the test with HepG2 cells and against MTP was over 1000 nM throughout.
`CCOC(=O)[C@@]1(c2ccccc2)CC[C@H](C(=O)N2CCC(NC(=O)c3ccccc3OC)CC2)c2ccccc21` [Co. No. 34]: the IC50 in the test with HepG2 cells is 3.79 nM; at MTP, 1.16 nM.
Consider `CCOC(=O)[C@]1(c2ccccc2)CC[C@@H](C(=O)N2CCC(NC(=O)c3ccccc3OC)CC2)c2ccccc21` [Co. No. 35], for which the figures for the IC50 with HepG2 cells and at MTP were 5370 nM and 1710 nM, respectively.
The corresponding values for `CCOC(=O)[C@@]1(c2ccccc2)CC[C@H](C(=O)N2CCC(NC(=O)c3ccccc3O)CC2)c2ccccc21` [Co. No. 36] are 11.7 nM and 3.47 nM.
Take `COc1ccccc1C(=O)NC1CCN(C(=O)[C@H]2CC[C@](C(N)=O)(c3ccccc3)c3ccccc32)CC1` [Co. No. 40]: the IC50 with HepG2 cells was 70.6 nM; on MTP, over 10000 nM.
The corresponding values for `CCOC(=O)[C@]1(c2ccccc2)CC[C@@H](C(=O)N2CCC(NC(=O)c3ccccc3O)CC2)c2ccccc21` [Co. No. 42] are 1000 nM and over 10000 nM.
`C=CCOC(=O)[C@@]1(c2ccccc2)CC[C@H](C(=O)N2CCC(NC(=O)c3ccccc3OC)CC2)c2ccccc21` [Co. No. 45] gave a concentration for half-maximal inhibition (IC50) in the test with HepG2 cells of 2.63 nM. This counts as single-digit nanomolar.
As for `C=CCOC(=O)[C@]1(c2ccccc2)CC[C@@H](C(=O)N2CCC(NC(=O)c3ccccc3OC)CC2)c2ccccc21` [Co. No. 46], in the test with HepG2 cells (pIC50 = -log IC50, listed as 46), the pIC50 was found to be 6.649.
In the case of `CCOC(=O)CNC(=O)[C@@]1(c2ccccc2)CC[C@H](C(=O)N2CCC(NC(=O)c3ccccc3OC)CC2)c2ccccc21` [Co. No. 47], the IC50 with HepG2 cells was 27.2 nM; against MTP, 2.37 nM.
In the same order, the values of `CCOC(=O)CNC(=O)[C@]1(c2ccccc2)CC[C@@H](C(=O)N2CCC(NC(=O)c3ccccc3OC)CC2)c2ccccc21` [Co. No. 48] are 9770 nM and 13.3 nM.
`COC(=O)[C@]1(c2ccccc2)CC[C@@H](C(=O)N2CCC(NC(=O)c3cccc(OC)c3OC)CC2)c2ccccc21` [Co. No. 49]: the IC50 is 638 nM in the test with HepG2 cells and 18.1 nM on MTP.
The corresponding values for `COC(=O)[C@]1(c2ccccc2)CC[C@@H](C(=O)N2CCC(NC(=O)c3cc(OC)ccc3OC)CC2)c2ccccc21` [Co. No. 50] are 16.1 nM and 11.6 nM.
The corresponding values for `COC(=O)[C@]1(c2ccccc2)CC[C@@H](C(=O)N2CCC(NC(=O)c3cc(C)ccc3OC)CC2)c2ccccc21` [Co. No. 51] are 9.51 nM and 12.8 nM.
Consider `COC(=O)[C@]1(c2ccccc2)CC[C@@H](C(=O)N2CCC(NC(=O)c3cc(OC)ccc3OCC(F)(F)F)CC2)c2ccccc21` [Co. No. 53], for which the IC50 in the test on HepG2 cells is 61.8 nM; against MTP, 9.64 nM.
Take `COC(=O)[C@]1(c2ccccc2)CC[C@@H](C(=O)N2CCC(NC(=O)c3ccccc3OC(F)F)CC2)c2ccccc21` [Co. No. 54]: the half-maximal inhibitory concentration (IC50) was 65.8 nM with HepG2 cells and 10.4 nM on MTP.
As to `COC(=O)[C@]1(c2ccccc2)CC[C@@H](C(=O)N2CCC(NC(=O)c3c(O)cccc3OC)CC2)c2ccccc21` [Co. No. 55], the figures for the IC50 with HepG2 cells and against MTP were over 1000 nM and 60.7 nM, respectively.
The corresponding values for `COC(=O)[C@]1(c2ccccc2)CC[C@@H](C(=O)N2CCC(NC(=O)c3cccnc3OC)CC2)c2ccccc21` [Co. No. 56] are 2.24 nM and 1.69 nM.
The corresponding values for `CCOc1ncccc1C(=O)NC1CCN(C(=O)[C@@H]2CC[C@](C(=O)OC)(c3ccccc3)c3ccccc32)CC1` [Co. No. 57] are 69.7 nM and 5.68 nM.
The corresponding values for `CCCOc1cccnc1C(=O)NC1CCN(C(=O)[C@@H]2CC[C@](C(=O)OC)(c3ccccc3)c3ccccc32)CC1` [Co. No. 58] are 2.04 nM and 149 nM.
